According to PubChem BioAssay (NCI):
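Cells were grown in 96-well plates and exposed to each compound for 48 hours at five concentrations; endpoints were interpolated linearly between bracketing concentrations, or set to the highest concentration if not reached. Here, GI50 denotes the concentration required for 50% inhibition of growth. The concentration for full growth arrest is given as TGI.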

Tests used:
Assay in all cases: NCI-60 cell line screen, 48 h
OVCAR-5 ovarian = system: OVCAR-5 ovarian
EKVX NSCLC = system: EKVX NSCLC
HCT-116 colon = system: HCT-116 colon
MCF7 breast = system: MCF7 breast
HOP-62 NSCLC = system: HOP-62 NSCLC
KM20L2 colon = system: KM20L2 colon
DLD-1 colon = system: DLD-1 colon
CCRF-CEM leukemia = system: CCRF-CEM leukemia
HCC-2998 colon = system: HCC-2998 colon
SK-OV-3 ovarian = system: SK-OV-3 ovarian
SK-MEL-2 melanoma = system: SK-MEL-2 melanoma
TK-10 renal = system: TK-10 renal
SR leukemia = system: SR leukemia
M14 melanoma = system: M14 melanoma

SMILES	TGI (OVCAR-5 ovarian)	TGI (EKVX NSCLC)	TGI (HCT-116 colon)	TGI (MCF7 breast)	TGI (HOP-62 NSCLC)	TGI (KM20L2 colon)	TGI (DLD-1 colon)	TGI (CCRF-CEM leukemia)	TGI (HCC-2998 colon)	TGI (SK-OV-3 ovarian)	TGI (SK-MEL-2 melanoma)	TGI (TK-10 renal)	TGI (SR leukemia)	TGI (M14 melanoma)	GI50 (SR leukemia)	GI50 (EKVX NSCLC)	GI50 (M14 melanoma)	GI50 (MCF7 breast)	GI50 (CCRF-CEM leukemia)	GI50 (SK-OV-3 ovarian)
O=C(O)C(Cc1cccs1)NC(=O)C(F)(F)F (stereo not drawn)	> 100 µM	> 100 µM	> 100 µM	> 100 µM	> 100 µM	> 100 µM	> 100 µM	> 100 µM	> 100 µM	> 100 µM	> 100 µM	–	–	–	–	–	–	–	–	–
CC(N)Cc1cccc(C(F)(F)F)c1 (stereo not drawn)	> 100 µM	> 100 µM	> 100 µM	–	> 100 µM	> 100 µM	> 100 µM	> 100 µM	> 100 µM	> 100 µM	> 100 µM	> 100 µM	> 100 µM	> 100 µM	–	–	–	–	–	–
COC(=O)c1cccc(NC(=O)Nc2ccc3oc(=O)c4ccccc4c3c2)c1	–	> 100 µM	–	> 100 µM	–	–	–	26.2 µM	–	> 100 µM	–	–	> 100 µM	> 100 µM	37 µM	> 100 µM	> 100 µM	> 100 µM	12.1 µM	> 100 µM
CN(C)CCOc1cc2c(c3ccccc13)-c1ccccc1C2=O	7.05 µM	18.5 µM	2.93 µM	5.6 µM	3.95 µM	5.3 µM	4.01 µM	10.8 µM	4.68 µM	24.6 µM	3.44 µM	–	–	–	–	–	–	–	–	–
CCSC(=Nc1ccccc1)SC	> 100 µM	> 100 µM	> 100 µM	–	> 100 µM	> 100 µM	> 100 µM	> 100 µM	> 100 µM	> 100 µM	> 100 µM	> 100 µM	–	> 100 µM	–	–	–	–	–	–
CCCCOC(=O)CN1C(=O)c2ccccc2C1=O	> 100 µM	> 100 µM	> 100 µM	–	> 100 µM	> 100 µM	> 100 µM	–	> 100 µM	> 100 µM	> 100 µM	> 100 µM	> 100 µM	> 100 µM	–	–	–	–	–	–
C#CCCCC(=C)C[C@H](OCc1ccccc1)[C@H]1OC(=O)[C@@H]1C	> 100 µM	> 100 µM	–	> 100 µM	> 100 µM	–	–	> 100 µM	> 100 µM	> 100 µM	> 100 µM	> 100 µM	> 100 µM	> 100 µM	–	–	–	–	–	–
O=C(CCl)N1CCCCC1C1(c2cc3ccccc3[nH]2)OCCO1 (stereo not drawn)	17.2 µM	5.74 µM	10.2 µM	8.97 µM	20.6 µM	–	–	–	26.9 µM	20.2 µM	20.2 µM	10.1 µM	–	13.6 µM	–	–	–	–	–	–
COc1cc(CC2CCc3nc(N)nc(N)c3C2)cc(OC)c1OC (stereo not drawn)	> 100 µM	> 100 µM	–	> 100 µM	69.7 µM	–	–	–	> 46.9 µM	> 100 µM	> 56.6 µM	> 100 µM	> 100 µM	28.7 µM	–	–	–	–	–	–
CO/C(=N/N1CC1C(F)(F)F)c1ccncc1 (stereo not drawn)	> 100 µM	–	> 100 µM	> 100 µM	> 100 µM	–	–	> 100 µM	–	> 100 µM	> 100 µM	–	> 100 µM	> 100 µM	–	–	–	–	–	–
NC(=O)/N=C(\N)NC(=O)c1ccccc1	> 100 µM	> 100 µM	> 100 µM	–	> 100 µM	–	–	–	> 100 µM	–	> 100 µM	> 100 µM	> 100 µM	> 100 µM	–	–	–	–	–	–
N#CN=Nc1cc(Cl)c(N=NC#N)cc1Cl	> 100 µM	> 100 µM	> 100 µM	–	> 100 µM	> 100 µM	> 100 µM	92.2 µM	> 100 µM	> 100 µM	> 100 µM	> 100 µM	> 100 µM	> 100 µM	–	–	–	–	–	–
